Where two headings read alike, the source gives them in different places.
How the values were obtained:
[1] = system: CHO-WBL cells; assay: Chromosomal aberrations in CHO-WBL cells; format: cell-based; settings: with and without metabolic activation
[2] = Study MPKF: plasma pharmacokinetics of MDMA and MDA, single 120 mg MDMA·HCl, fasted/fed; format: in vivo, human; settings: for Tmax: median; for concentration at 0.5 h: .5 h
From the text: (§1) The MPKF was a Phase 1, open-label, randomized sequence, multi-dose, 2-period crossover food effect study in 16 healthy individuals. The MPKF study evaluated plasma concentrations of both MDMA and the active metabolite 3,4-methylenedioxyamphetamine (MDA). Summary PK Parameters of the preliminary data was based on interim analysis are presented in Table 12 Table 12 Table 12, and Table 13 Table 13 Table 13 for MDMA and MDA, respectively.
Participants were randomized to receive 1 of 2 conditions before the other: • Fasted Treatment: at least 10 hours of fasting followed by administration of MDMA HCl with 240 mL water. • Fed Treatment: at least 10 hours of fasting followed by a high-fat (approximately 50% of total caloric content of the meal) and high-calorie (approximately 800 to 1000 calories) meal was consumed within 30 minutes prior to IMP administration.
(§2) Participants remained at the clinical research unit (CRU) for each Dosing Session from the time of check-in on the night before dosing until discharge 48 hours after dosing for collection of serial blood samples for PK analysis and safety monitoring. IMP was administered on Day 1 following the treatment sequence to which the participant was randomized. An additional outpatient visit occurred 72 hours after dosing to collect a final PK sample, commensurate with the expected PK profiles of MDMA and MDA. Safety assessments were also performed at this visit.
(§3) The washout period between Dosing Sessions was at least 14 days. If a participant experienced emesis within 4 hours of administration, they were to be withdrawn from the study and replaced with a new participant. An End of Study Visit was performed 2 to 10 days after the completion of the final Dosing Session 72-hour follow-up. An informal interim analysis was planned to be conducted after at least 5 participants completed at least 1 Dosing Session to examine PK variability.
The API was a white crystalline powder of pharmaceutical quality, made according to current Good Manufacturing Practices (cGMP) for human use.
Participants: Sixteen healthy individuals were recruited for the study.
Intervention: The study was conducted as a Phase 1, open-label, randomized sequence, multi-dose, 2-period crossover food effect study. Each participant received multiple doses of MDMA, and plasma concentrations of both MDMA and the active metabolite MDA were measured.
Sample Collection: Blood samples were collected at various time points up to 72 hours after dosing. The samples were analyzed using validated liquid chromatography-tandem mass spectrometry (LC-MS/MS) methods.
Data Analysis: The summary PK parameters were presented in Table 12 for MDMA and Table 13 for MDA. The data were analyzed using descriptive statistics, and the mean and standard deviation were calculated. The results were compared between the two periods and analyzed for food effects. Statistical analyses were performed using appropriate methods, such as analysis of variance (ANOVA) and paired t-tests. A p-value of less than 0.05 was considered statistically significant.

[3] = molecular target: MATE2-K (Homo sapiens, UniProt Q86VL8); assay: Transporter inhibition, MATE2-K
Sequence of MATE2-K (Q86VL8 1-566 isoform Q86VL8-3): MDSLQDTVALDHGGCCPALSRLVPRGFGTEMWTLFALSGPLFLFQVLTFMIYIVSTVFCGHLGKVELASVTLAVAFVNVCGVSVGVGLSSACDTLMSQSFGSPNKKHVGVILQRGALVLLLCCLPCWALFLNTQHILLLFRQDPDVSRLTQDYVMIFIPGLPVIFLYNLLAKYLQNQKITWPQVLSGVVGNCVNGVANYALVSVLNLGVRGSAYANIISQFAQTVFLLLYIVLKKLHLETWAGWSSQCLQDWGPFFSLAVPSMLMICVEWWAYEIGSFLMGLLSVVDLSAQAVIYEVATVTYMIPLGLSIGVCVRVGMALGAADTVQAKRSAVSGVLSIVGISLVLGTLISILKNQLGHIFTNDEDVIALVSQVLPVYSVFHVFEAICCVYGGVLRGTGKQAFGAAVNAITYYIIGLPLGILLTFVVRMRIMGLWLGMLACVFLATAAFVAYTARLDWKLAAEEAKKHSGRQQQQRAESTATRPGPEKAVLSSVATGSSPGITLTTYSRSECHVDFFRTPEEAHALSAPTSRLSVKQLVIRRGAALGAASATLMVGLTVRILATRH

[4] = system: CYP2B6, CYP2D6, CYP2C19, CYP1A2, CYP3A4, CYP2C9, CYP2C8; assay: CYP enzymes metabolizing MDMA; settings: less contribution by CYP2C19, CYP1A2, CYP3A4, CYP2C9, and CYP2C8
[5] = molecular target: organic cation transporter (OCT1) (Homo sapiens, UniProt O15245); assay: Transporter inhibition, OCT1; settings: at supratherapeutic concentrations
Sequence of organic cation transporter (OCT1) (O15245 whole entry): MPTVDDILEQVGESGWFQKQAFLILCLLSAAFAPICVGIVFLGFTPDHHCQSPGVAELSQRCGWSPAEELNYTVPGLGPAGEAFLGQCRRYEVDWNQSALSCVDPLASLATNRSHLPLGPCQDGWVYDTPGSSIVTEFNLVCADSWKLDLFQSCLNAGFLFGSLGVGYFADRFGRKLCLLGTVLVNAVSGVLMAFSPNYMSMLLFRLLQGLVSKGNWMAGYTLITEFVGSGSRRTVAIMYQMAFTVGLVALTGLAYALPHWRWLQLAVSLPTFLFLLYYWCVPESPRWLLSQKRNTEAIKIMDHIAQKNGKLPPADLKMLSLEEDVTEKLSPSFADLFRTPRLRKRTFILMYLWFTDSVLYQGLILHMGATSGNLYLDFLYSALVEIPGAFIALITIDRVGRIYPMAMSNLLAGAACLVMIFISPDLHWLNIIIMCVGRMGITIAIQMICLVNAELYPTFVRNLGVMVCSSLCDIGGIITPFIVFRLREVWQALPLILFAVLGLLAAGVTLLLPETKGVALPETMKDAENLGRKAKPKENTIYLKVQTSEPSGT

[6] = cited from earlier work
[7] = Study MPKF: safety and tolerability (AEs, laboratory, vital signs); format: in vivo, human; settings: human, plasma, oral, 120 mg, 1 participant, no AEs reported
From the text: as §1, §2, §3

[8] = system: healthy individuals; assay: as above; format: in vivo, human
From the text: as §1, §2, §3

[9] = Fasted N = 15, 120 mg MDMA·HCl, preliminary
[10] = Fasted N = 15, 120 mg MDMA·HCl, preliminary, arithmetic mean
[11] = Fed N = 11, 120 mg MDMA·HCl, preliminary
[12] = Fed N = 11, 120 mg MDMA·HCl, preliminary, arithmetic mean
[13] = human, plasma, oral, 120 mg, fasted treatment group, read-out: PK plasma concentration, Geom. Mean
[14] = human, plasma, oral, 120 mg, fasted treatment group, read-out: PK plasma concentration, Mean
[15] = human, plasma, oral, 120 mg, fasted treatment group, read-out: PK plasma concentration, Median
[16] = human, plasma, oral, 120 mg, fed treatment group, read-out: PK plasma concentration, Geom. Mean
[17] = human, plasma, oral, 120 mg, fed treatment group, read-out: PK plasma concentration, Mean
[18] = human, plasma, oral, 120 mg, fed treatment group, read-out: PK plasma concentration, Median

CNC(C)Cc1ccc2c(c1)OCO2 (stereo not shown) [MDMA, 3,4-methylenedioxymethamphetamine]
chromosomal aberrations [1]: no signs of chromosomal aberrations
higher plasma PK values in intermediate relative to normal CYP2D6 metabolizers ([2]; 8 intermediate, 8 normal metabolizers): approximately 26%
Cmax, Geometric LSM ([2]; Fasted): 238 ng/mL
Tlag [2, 9]: 0.6 h
CL/F [2, 10]: 29.5 L/h
Cmax [2, 10]: 238 ng/mL
Tmax [2, 9]: 2 h
AUC0-inf, Geometric LSM ([2]; Fed): 3357 ng·h/mL
Cmax, Geometric LSM ([2]; Fed): 229 ng/mL
Tlag [2, 11]: 0.7 h
AUC(0-inf) [2, 12]: 3318 ng·h/mL
CL/F [2, 12]: 30.1 L/h
Cmax [2, 12]: 227 ng/mL
Tmax [2, 11]: 4 h
Cmax ([2]; both sexes, human, plasma, oral, single 120 mg dose of MDMA·HCl, fasting healthy males and females, read-out: Cmax): 261 ng/mL
Cmax ([2]; both sexes, human, plasma, po, single 120 mg dose of MDMA·HCl, fasting healthy males and females, read-out: Cmax): 261 ng/mL
AUC0-72, Geometric Mean Ratio ([2]; fed vs fasted): 0.99
AUC0-inf, Geometric Mean Ratio ([2]; fed vs fasted): 0.99
AUC0-t, Geometric Mean Ratio ([2]; fed vs fasted): 1.00
Cmax, Geometric Mean Ratio ([2]; fed vs fasted): 0.97
dose proportionality of pharmacokinetics ([2]; higher than dose proportional increases, auto-inhibition of CYP2D6): non-linear
AUC(0-t) ([2]; human, plasma, oral, 120 mg, Fasted, read-out: AUC0-72, Geometric LSM): 3360 ng·h/mL
AUC(0-inf) ([2]; human, plasma, oral, 120 mg, Fasted, read-out: AUC0-inf, Geometric LSM): 3380 ng·h/mL
AUC(0-t) ([2]; human, plasma, oral, 120 mg, Fasted, read-out: AUC0-t, Geometric LSM): 3120 ng·h/mL
AUC(0-t) ([2]; human, plasma, oral, 120 mg, Fed, read-out: AUC0-72, Geometric LSM): 3340 ng·h/mL
AUC(0-t) ([2]; human, plasma, oral, 120 mg, Fed, read-out: AUC0-t, Geometric LSM): 3110 ng·h/mL
half-life ([2]; human, plasma, oral, 120 mg, both fed and fasted groups, read-out: mean elimination half-life): 8 to 9 h
concentration at 1 h [2, 13]: 111 ng/mL
concentration at 1 h [2, 14]: 111 ng/mL
concentration at 1 h [2, 15]: 124 ng/mL
concentration at 2 h [2, 13]: 186 ng/mL
concentration at 2 h [2, 14]: 210 ng/mL
concentration at 2 h [2, 15]: 211 ng/mL
concentration at 4 h [2, 13]: 219 ng/mL
concentration at 4 h [2, 14]: 225 ng/mL
concentration at 4 h [2, 15]: 218 ng/mL
concentration at 6 h [2, 13]: 188 ng/mL
concentration at 6 h [2, 14]: 193 ng/mL
concentration at 6 h [2, 15]: 199 ng/mL
concentration at 8 h [2, 13]: 160 ng/mL
concentration at 8 h [2, 14]: 166 ng/mL
concentration at 8 h [2, 15]: 165 ng/mL
concentration at 12 h [2, 13]: 111 ng/mL
concentration at 12 h [2, 14]: 118 ng/mL
concentration at 12 h [2, 15]: 120 ng/mL
concentration at 24 h [2, 13]: 44.2 ng/mL
concentration at 24 h [2, 14]: 50.1 ng/mL
concentration at 24 h [2, 15]: 53.6 ng/mL
concentration at 48 h [2, 13]: 12.3 ng/mL
concentration at 48 h [2, 14]: 7.61 ng/mL
concentration at 48 h [2, 15]: 6.5 ng/mL
concentration at 72 h [2, 13]: 6.25 ng/mL
concentration at 72 h [2, 14]: 0.417 ng/mL
concentration at 72 h [2, 15]: 0 ng/mL
concentration at 0.5 h [2, 13]: 39.3 ng/mL
concentration at 0.5 h [2, 14]: 23.1 ng/mL
concentration at 0.5 h [2, 15]: 0 ng/mL
concentration at 1 h [2, 16]: 46.2 ng/mL
concentration at 1 h [2, 17]: 59.8 ng/mL
concentration at 1 h [2, 18]: 47.4 ng/mL
concentration at 2 h [2, 16]: 118 ng/mL
concentration at 2 h [2, 17]: 129 ng/mL
concentration at 2 h [2, 18]: 132 ng/mL
concentration at 4 h [2, 16]: 222 ng/mL
concentration at 4 h [2, 17]: 228 ng/mL
concentration at 4 h [2, 18]: 224 ng/mL
concentration at 6 h [2, 16]: 208 ng/mL
concentration at 6 h [2, 17]: 215 ng/mL
concentration at 6 h [2, 18]: 208 ng/mL
concentration at 8 h [2, 16]: 173 ng/mL
concentration at 8 h [2, 17]: 181 ng/mL
concentration at 8 h [2, 18]: 180 ng/mL
concentration at 12 h [2, 16]: 120 ng/mL
concentration at 12 h [2, 17]: 129 ng/mL
concentration at 12 h [2, 18]: 132 ng/mL
concentration at 24 h [2, 16]: 42 ng/mL
concentration at 24 h [2, 17]: 50.5 ng/mL
concentration at 24 h [2, 18]: 41.4 ng/mL
concentration at 48 h [2, 16]: 14.2 ng/mL
concentration at 48 h [2, 17]: 7.41 ng/mL
concentration at 48 h [2, 18]: 0 ng/mL
concentration at 72 h [2, 16]: 11.3 ng/mL
concentration at 72 h [2, 17]: 0.81 ng/mL
concentration at 72 h [2, 18]: 0 ng/mL
concentration at 0.5 h [2, 16]: 18.5 ng/mL
concentration at 0.5 h [2, 17]: 10.2 ng/mL
concentration at 0.5 h [2, 18]: 4.12 ng/mL
Vd/F ([2]; human, plasma, po, 120 mg, Fasted N = 15, 120 mg MDMA·HCl, preliminary, arithmetic mean): 372 L
AUC(0-t) ([2]; human, plasma, po, 120 mg, Fasted N = 15, 120 mg MDMA·HCl, preliminary, arithmetic mean, read-out: AUC0-72): 3370 ng·h/mL
AUC(0-inf) ([2]; human, plasma, po, 120 mg, Fasted N = 15, 120 mg MDMA·HCl, preliminary, arithmetic mean, read-out: AUC0-inf): 3390 ng·h/mL
AUC(0-t) ([2]; human, plasma, po, 120 mg, Fasted N = 15, 120 mg MDMA·HCl, preliminary, arithmetic mean, read-out: AUC0-t): 3120 ng·h/mL
half-life ([2]; human, plasma, po, 120 mg, Fasted N = 15, 120 mg MDMA·HCl, preliminary, arithmetic mean, read-out: t1/2 (converted)): 8.7 h
Vd/F ([2]; human, plasma, po, 120 mg, Fed N = 11, 120 mg MDMA·HCl, preliminary, arithmetic mean): 349 L
AUC(0-t) ([2]; human, plasma, po, 120 mg, Fed N = 11, 120 mg MDMA·HCl, preliminary, arithmetic mean, read-out: AUC0-72): 3300 ng·h/mL
AUC(0-t) ([2]; human, plasma, po, 120 mg, Fed N = 11, 120 mg MDMA·HCl, preliminary, arithmetic mean, read-out: AUC0-t): 3060 ng·h/mL
half-life ([2]; human, plasma, po, 120 mg, Fed N = 11, 120 mg MDMA·HCl, preliminary, arithmetic mean, read-out: t1/2 (converted)): 8 h
AUC(0-inf) ([2]; human, plasma, po, 120 mg, single 120 mg dose of MDMA·HCl, fasting, read-out: AUC0-inf): 3890 ng·h/mL
half-life ([2]; human, plasma, po, 120 mg, single 120 mg dose of MDMA·HCl, fasting, read-out: t1/2 (converted)): 9.1 h
Tmax ([2]; human, plasma, po, single 120 mg dose of MDMA·HCl, fasting, read-out: Tmax): ≤ 2 h
plasma concentrations and PK parameters (Cmax, AUC0-t, AUC0-inf, AUC0-72, AUC% ext), fed vs fasted ([2]; single 120 mg MDMA HCl): not significantly different
Tmax ([2]; single 120 mg dose of MDMA·HCl, fasting): 2.00 h
unbound maximum concentration (Cmax) ([2]; single 120 mg dose, estimated from Cmax 261 ng/ml and 51% protein binding): 660 nM
inhibition of MATE2-K [3]: not an inhibitor
metabolizing CYP enzymes [4]: metabolized primarily by CYP2B6 and CYP2D6
inhibition of OCT1 [5]: inhibits
unchanged MDMA excreted in urine ([6]; oral 1.0 mg/kg MDMA): 8%
unchanged MDMA excreted in urine ([6]; oral 1.6 mg/kg MDMA): 11%
AUC(0-inf) ([7]; read-out: AUC0-inf at which tolerability is supported): 8920 ng·h/mL
Cmax ([7]; read-out: Cmax at which tolerability is supported): 440 ng/mL
participants with SBP≥160 mmHg or DBP≥100 mmHg or temperature>38.3° C. ([8]; any timepoint): No participant
time of largest mean changes in SBP, DBP, temperature ([8]; fasted condition): 2 h
time of largest mean changes in SBP, DBP, temperature ([8]; fed group): 4 h
difference in largest mean change of SBP, fasted vs fed ([8]; non-clinically significant): about +5 mmHg
difference in largest mean change of temperature, fasted vs fed ([8]; non-clinically significant): ~+0.05 °C
impact on biologic laboratory parameters ([8]; screening to end of study): no significant impact

— patent US20250134855A1, “CO[…] AND METHODS OF USING SAME” (LYKOS THERAPEUTICS, INC., priority 2022, published 2025)
